Source: patent publication US4853412A, “N-[[6-methoxy-5-(trifluoromethyl)-1-naphthalenyl]-[substituted imino]methyl]-n-methylglycines” (American Home Products Corporation, priority 1987, dated 1989)

Assays:
[1] = tested on: sciatic nerves of rats fed galactose; assay: galactosemic rats: lowering of galactitol (dulcitol) accumulation in the sciatic nerve; format: in vivo, rat (Sprague-Dawley); conditions: for % lowering dulcitol accumulation in vivo, N (sciatic nerve): four days, vs untreated galactosemic rats
Description: (§1) The aldose reductase inhibiting property of the compounds of this invention and the utilization of the compounds in preventing, diminishing and alleviating diabetic complications by lowering polyols accumulation are demonstrable in experiments using galactosemic rats, see Dvornik et al, Science, 182, 1146 (1973). Such experiments are exemplified hereinbelow after the listing of the following general comments pertaining to these experiments:
(§2) (a) Four or more groups of six male rats, 50-70 g, Sprague-Dawley strain, were used. The first group, the control group, was fed a mixture of laboratory chow (rodent Laboratory Chow, Purina) and glucose at 20% (w/w %) concentration. The untreated galactosemic group and the drug-treated groups were fed a similar diet in which galactose is substituted for glucose. The test compound was either admixed to the diet or administered by gavage. In experiments involving compound administration in the diet, the average dose administered was calculated from the actual food intake of the animals in each group. The concentration of galactose in the diet of the treated groups was the same as that for the untreated galactosemic group.
(§3) (b) After four days, the animals were killed by decapitation. The eyeballs were removed and punctured with a razor blade; the freed lenses were rolled gently on filter paper and weighed. The sciatic nerves were dissected as completely as possible and weighed. Both tissues when frozen can be kept up to two weeks before being analyzed for galactitol.
(§4) (c) The polyol determination was performed by a modification of the procedure of M. Kraml and L. Cosyns, Clin. Biochem., 2,373 (1969). Only two minor reagent changes were made: (a) The rinsing mixture was an aqueous 5% (w/v) trichloroacetic acid solution and (b) the stock solution was prepared by dissolving 25 mg of dulcitol in 100 mL of an aqueous trichloroacetic acid solution. [N.B.: For each experiment the average value found in the tissue from rats fed the glucose diet was subtracted from the individual values found in the corresponding tissue in galactose-fed rats to obtain the amount of polyol accumulated.] The aldose reductase inhibiting effects of the compounds of formula (I) were also tested by employing an in vitro testing procedure similar to that described by S. Hayman and J. H. Kinoshita, J. Biol. Chem., 240, 877 (1965). In the present case the procedure of Hayman and Kinoshita was modified in that the final chromatography step was omitted in the preparation of the enzyme from bovine lens.
(§5) The figures under L and N represent the percentage decrease of galactitol accumulation in the tissues of the lens and sciatic nerve, respectively, for treated rats as compared to untreated rats.

[2] = target: T1, aldose reductase (Bos taurus, UniProt P16116); assay: in vitro inhibition of aldose reductase from bovine lens (modified Hayman and Kinoshita procedure); format: biochemical; conditions: 10^-7 M
T1 construct: preparation of the enzyme from bovine lens; from tissue; host or cells: bovine lens
Description: Only two minor reagent changes were made: (a) The rinsing mixture was an aqueous 5% (w/v) trichloroacetic acid solution and (b) the stock solution was prepared by dissolving 25 mg of dulcitol in 100 mL of an aqueous trichloroacetic acid solution. [N.B.: For each experiment the average value found in the tissue from rats fed the glucose diet was subtracted from the individual values found in the corresponding tissue in galactose-fed rats to obtain the amount of polyol accumulated.] […] In the present case the procedure of Hayman and Kinoshita was modified in that the final chromatography step was omitted in the preparation of the enzyme from bovine lens.

[3] = tested on: lenses of rats fed galactose; assay: galactosemic rats: lowering of galactitol (dulcitol) accumulation in the lens; format: in vivo, rat (Sprague-Dawley); conditions: four days, vs untreated galactosemic rats
Description: as §1, §2, §3, §4, §5

Compound: COc1ccc2c(C(=NS(=O)(=O)C(F)(F)F)N(C)CC(=O)O)cccc2c1C(F)(F)F [Example 5, N-[[6-Methoxy-5-(trifluoromethyl)-1-naphthalenyl][[(trifluoromethyl)sulfonyl]imino]methyl]-N-methylglycine]
- % lowering dulcitol accumulation in vivo, N (sciatic nerve) ([1]; 56 mg/kg/day p.o.): 0%
- inhibition at 0.1 µM [2]: 69%
- % lowering dulcitol accumulation in vivo, L (lens) ([3]; 56 mg/kg/day p.o.): 0%

Compound: COc1ccc2c(C(=NS(=O)(=O)c3ccc(Br)cc3)N(C)CC(=O)O)cccc2c1C(F)(F)F [Example 6, N-[[[(4-Bromophenyl)sulfonyl]imino][6-methoxy-5-(trifluoromethyl)-1-naphthalenyl]methyl]-N-methylglycine]
- % lowering dulcitol accumulation in vivo, N (sciatic nerve) ([1]; 55 mg/kg/day p.o.): 0%
- inhibition at 0.1 µM [2]: 5%
- % lowering dulcitol accumulation in vivo, L (lens) ([3]; 55 mg/kg/day p.o.): 0%

Compound: COc1ccc2c(C(=NC#N)N(C)CC(=O)O)cccc2c1C(F)(F)F [Example 4, N-[(Cyanoimino)[6-methoxy-5-(trifluoromethyl)-1-naphthalenyl]methyl]-N-methylglycine]
- % lowering dulcitol accumulation in vivo, N (sciatic nerve) ([1]; 26 mg/kg/day p.o.): 30%
- % lowering dulcitol accumulation in vivo, N (sciatic nerve) ([1]; 100 mg/kg/day p.o.): 61%
- lowering of polyol accumulation compared with tolrestat (in words) ([1]; 100 mg/kg/day vs tolrestat at 6.4 mg/kg/day): comparable results
- inhibition at 0.1 µM [2]: 80%
- % lowering dulcitol accumulation in vivo, L (lens) ([3]; 26 mg/kg/day p.o.): 0%
- % lowering dulcitol accumulation in vivo, L (lens) ([3]; 100 mg/kg/day p.o.): 0%

Compound: COc1ccc2c(C(=S)N(C)CC(=O)O)cccc2c1C(F)(F)F [tolrestat, N-[[6-methoxy-5-(trifluoromethyl)-1-naphthalenyl]thioxomethyl]-N-methylglycine, reference compound]
- % lowering dulcitol accumulation in vivo, N (sciatic nerve) ([1]; 6.4 mg/kg/day p.o.): 50%
- % lowering dulcitol accumulation in vivo, L (lens) ([3]; 6.4 mg/kg/day p.o.): 0%
